The microsomal CLint is a measure of how fast metabolising enzymes remove a compound, apart from limits set by blood flow. The IC50 is the concentration needed to halve the response being measured. A high value points to lower potency.

The results in this text go back to patent US20250346580A1, “NOVEL PYRIMIDINYL SULFONAMIDE DERIVATIVES” (Hoffmann-La Roche Inc., priority 2023, published 2025).

Data set [1] can be described thus: Microsome clearance assay, mouse. Conditions: mouse microsomes 0.5 mg/mL plus NADPH, 37° C., test compound 1 microM; second value of cell. It counts as in vitro ADME. Here is the method:
(§1) Microsome Clearance Assay Protocol:
(§2) incubations at a test compound of […] in microsomes (0.5 mg/mL) plus cofactor NADPH are performed in 96 well plates at 37° C. on a TECAN (Tecan Group Ltd, Switzerland) automated liquid handling system. The final concentration of the test compound in the incubation is 1 microM. After a 10 minutes preincubation step of the test compound with the microsomes, the enzymatic reaction is started by the addition of cofactors. At 1, 3, 6, 9, 15, 25, 35 and 45 minutes, aliquots of the incubations are removed and quenched with 1:3 (v/v) acetonitrile containing internal standards. Samples are then cooled and centrifuged before analysis of the supernatant by LC-MS/MS.
(§3) Reference compounds were tested against exemplified compounds for their Microsome Clearance.

Data set [2] can be described thus: Microsome clearance assay, human. It counts as in vitro ADME. The note with it: human microsomes 0.5 mg/mL plus NADPH, 37° C., test compound 1 microM; first value of cell. Here is the method: as §1, §2, §3
Data set [3] can be described thus: Microsome clearance assay, rat. Type of data set: in vitro ADME. The note with it: rat microsomes 0.5 mg/mL plus NADPH, 37° C., test compound 1 microM; third value of cell. As for the experimental part:
as §1, §2, §3

Data set [4] addresses human GPR17 short isoform (Homo sapiens, UniProt Q13304). The data set is described as follows: GPR17 cAMP assay (hGPR17 cAMP). It counts as cell-based. Conditions: CHO-K1 cells stably expressing human GPR17 short isoform; antagonist mode with EC80 of MDL29,951, forskolin 15 μM, TR-FRET cAMP. As for the experimental part:
GPR17 cAMP Assay Protocol:
CHO-K1 cells stably expressing vector containing untagged human GPR17 short isoform (Roche) were cultured at 37° C./5% CO2 in DMEM (Dulbecco's Modified Eagle Medium):F-12 (1:1) supplemented with 10% foetal bovine serum and 400 μg/ml Geneticin.
Changes in intracellular cyclic adenosine monophosphate (cAMP) levels were quantified using the Nano-TRF Detection Assay kit (Roche Diagnostics, Cat. No. 05214386001). This assay allows for direct cAMP quantification in a homogeneous solution. cAMP is detected based on time-resolved fluorescence energy transfer (TR-FRET) and competitive binding of ruthenylated cAMP and endogenous cAMP to an anti-cAMP monoclonal antibody labeled with AlexaFluor-700. The Ruthenium complex serves as the FRET donor and transfers energy to AlexaFluor-700. The FRET signal is inversely proportional to the cAMP concentration.
CHO-GPR17S cells were detached with Accutase and resuspended in assay buffer consisting of Hank's Balanced Salt Solution (HBSS), 10 mM HEPES (4-(2-hydroxyethyl) piperazine-1-ethanesulfonic acid solution) and 0.1% bovine serum albumin (pH 7.4). The cells were seeded in black 384-well plates (Corning) at a density of 10'000 cells/20 μl assay buffer until the addition of compounds.
Test antagonist compounds were serially diluted in dimethyl sulfoxide (DMSO) and spotted in 384-well plates. The compounds were then diluted in HBSS buffer supplemented with an EC80 concentration of MDL29,951 (3-(2-Carboxy-4,6-dichloroindol-3-yl)propionic acid) (GPR17 agonist) plus 3-Isobutyl-1-methylxanthine (IBMX) (0.5 mM final concentration) and added to the cells at room temperature. Forskolin (15 μM final concentration) was added 5 minutes after the test compounds and the cells were incubated at room temperature for 30 minutes. The assay was stopped by adding cAMP detection mix (containing detergents for cell lysis) for 90 minutes at room temperature.
Cellular cAMP was measured using a Paradigm reader (Molecular Devices). The raw data was used to calculate the FRET signal based on the assay's P-factor as per cAMP kit instructions. The data was normalized to the maximal activity of a reference antagonist and dose response curves were fitted to the percent activity of the test compounds using a sigmoidal dose response model (Genedata Screener).
In general terms: Cyclic AMP is a second messenger, typically raised through Gs and lowered through Gi signalling.

human GPR17 short isoform, sequence (Q13304 29-367): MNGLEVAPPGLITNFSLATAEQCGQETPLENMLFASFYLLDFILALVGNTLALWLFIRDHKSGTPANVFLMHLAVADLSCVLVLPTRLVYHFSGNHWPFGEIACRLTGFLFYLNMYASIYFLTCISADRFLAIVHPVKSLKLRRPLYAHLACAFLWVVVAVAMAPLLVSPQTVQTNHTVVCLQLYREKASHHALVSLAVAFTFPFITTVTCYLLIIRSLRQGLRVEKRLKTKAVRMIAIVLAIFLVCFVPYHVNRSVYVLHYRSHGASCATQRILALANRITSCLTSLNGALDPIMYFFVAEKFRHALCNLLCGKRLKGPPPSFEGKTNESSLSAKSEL

Turning to `N#Cc1ccc(NS(=O)(=O)c2c[nH]c(-c3ncccc3F)c2)c(F)c1` [RE-B], the microsomal CLint at 1 µM in data set [1] stood at 43 µL/min/mg; in data set [2], 253 µL/min/mg; in data set [3] it was 79 µL/min/mg.

Take `O=S(=O)(Nc1cc(F)c(Br)cc1F)c1c[nH]c(-c2ncccc2F)c1` [RE-C]: the microsomal CLint at 1 µM in data set [1] came to 238 µL/min/mg; in data set [2], 107 µL/min/mg; in data set [3], 582 µL/min/mg.

As to `COc1nc(NS(=O)(=O)c2c[nH]c(-c3ccccc3)c2)nc(OC)c1OCC(F)F` [Example 1, N-[5-(2,2-difluoroethoxy)-4,6-dimethoxy-pyrimidin-2-yl]-5-phenyl-1H-pyrrole-3-sulfonamide], in data set [1], the “Microsomal Clearance mouse” value came to 21 μL/min/mg protein. Also, the “Microsomal Clearance human” value in data set [2] amounted to 10 μL/min/mg protein. The “Microsomal Clearance rat” value in data set [3] is recorded as 81 μL/min/mg protein. Further, the half-maximal inhibitory concentration (IC50) in data set [4] was found to be 476 nM.

In the case of `COc1nc(NS(=O)(=O)c2c[nH]c(-c3ncccc3F)c2)nc(OC)c1OCCF` [Example 7, N-[5-(2-fluoroethoxy)-4,6-dimethoxy-pyrimidin-2-yl]-5-(3-fluoro-2-pyridyl)-1H-pyrrole-3-sulfonamide], the “Microsomal Clearance mouse” value in data set [1] is given as 12 μL/min/mg protein. Also, the “Microsomal Clearance human” value in data set [2] amounted to 10 μL/min/mg protein. In addition, the “Microsomal Clearance rat” value in data set [3] was 32 μL/min/mg protein. Also, 85 nM corresponded to half-maximal inhibition in data set [4] (IC50).

In the case of `COc1nc(NS(=O)(=O)c2c[nH]c(-c3cscn3)c2)nc(OC)c1CC(F)F` [Example 15, N-[5-(2,2-difluoroethyl)-4,6-dimethoxy-pyrimidin-2-yl]-5-thiazol-4-yl-1H-pyrrole-3-sulfonamide], the IC50 in data set [4] was determined as 661 nM. In other words, the sub-micromolar range.

In data set [4], `COc1nc(NS(=O)(=O)c2c[nH]c(-c3ncccc3F)c2)nc(OC)c1CC(F)F` [Example 6, N-[5-(2,2-difluoroethyl)-4,6-dimethoxy-pyrimidin-2-yl]-5-(3-fluoro-2-pyridyl)-1H-pyrrole-3-sulfonamide] displayed an IC50 of 107 nM.

`COc1nc(NS(=O)(=O)c2c[nH]c(-c3nc(C)cs3)c2)nc(OC)c1OCC(F)F` [Example 33, N-[5-(2,2-difluoroethoxy)-4,6-dimethoxy-pyrimidin-2-yl]-5-(4-methylthiazol-2-yl)-1H-pyrrole-3-sulfonamide]: the IC50 in data set [4] turned out to be 283 nM.

Regarding `COc1nc(NS(=O)(=O)c2c[nH]c(-c3cscn3)c2)nc(OC)c1OC(F)F` [Example 16, N-[5-(difluoromethoxy)-4,6-dimethoxy-pyrimidin-2-yl]-5-thiazol-4-yl-1H-pyrrole-3-sulfonamide], in data set [4], the half-maximal inhibitory concentration (IC50) amounted to 2270 nM.

In data set [4], `COc1nc(NS(=O)(=O)c2c[nH]c(-c3nc(C)cs3)c2)nc(OC)c1OC(F)F` [Example 32, N-[5-(difluoromethoxy)-4,6-dimethoxy-pyrimidin-2-yl]-5-(4-methylthiazol-2-yl)-1H-pyrrole-3-sulfonamide] registered an IC50 of 523 nM.

`COc1nc(NS(=O)(=O)c2c[nH]c(-c3ccncn3)c2)nc(OC)c1OCC(F)F` [Example 47, N-[5-(2,2-difluoroethoxy)-4,6-dimethoxy-pyrimidin-2-yl]-5-pyrimidin-4-yl-1H-pyrrole-3-sulfonamide] returned an IC50 in data set [4] of 1610 nM.

In the case of `COc1nc(NS(=O)(=O)c2c[nH]cc2Cc2ccccc2)nc(OC)c1OCCF` [Example 28, 4-benzyl-N-[5-(2-fluoroethoxy)-4,6-dimethoxy-pyrimidin-2-yl]-1H-pyrrole-3-sulfonamide], the IC50 in data set [4] stood at 1080 nM.

`COc1nc(NS(=O)(=O)c2c[nH]c(-c3ccccc3F)c2)nc(OC)c1OC(F)F` [Example 39, N-[5-(difluoromethoxy)-4,6-dimethoxy-pyrimidin-2-yl]-5-(2-fluorophenyl)-1H-pyrrole-3-sulfonamide]: 354 nM corresponded to half-maximal inhibition in data set [4] (IC50).

In data set [4], `COc1nc(NS(=O)(=O)c2c[nH]c(-c3nc(C)cs3)c2)nc(OC)c1OCCF` [Example 31, N-[5-(2-fluoroethoxy)-4,6-dimethoxy-pyrimidin-2-yl]-5-(4-methylthiazol-2-yl)-1H-pyrrole-3-sulfonamide] returned an IC50 of 222 nM.

In data set [4], `COc1nc(NS(=O)(=O)c2c[nH]c(-c3cnc(C)s3)c2)nc(OC)c1OCC(F)F` [Example 42, N-[5-(2,2-difluoroethoxy)-4,6-dimethoxy-pyrimidin-2-yl]-5-(2-methylthiazol-5-yl)-1H-pyrrole-3-sulfonamide] had an IC50 of 1990 nM. Compared with the last compound, the IC50 is about 9-fold higher.

Take `COc1nc(NS(=O)(=O)c2c[nH]c(-c3nccs3)c2)nc(OC)c1OC(F)F` [Example 14, N-[5-(difluoromethoxy)-4,6-dimethoxy-pyrimidin-2-yl]-5-thiazol-2-yl-1H-pyrrole-3-sulfonamide]: the “Microsomal Clearance mouse” value in data set [1] was found to be 10 μL/min/mg protein. Also, in data set [2], the “Microsomal Clearance human” value is on record as 10 μL/min/mg protein. Further, the “Microsomal Clearance rat” value in data set [3] is 50 μL/min/mg protein. In data set [4], this compound yielded a 50% inhibitory concentration (IC50) of 256 nM.

On to `COc1nc(NS(=O)(=O)c2c[nH]c(-c3nccs3)c2)ncc1CC(F)F` [Example 34, N-[5-(2,2-difluoroethyl)-4-methoxy-pyrimidin-2-yl]-5-thiazol-2-yl-1H-pyrrole-3-sulfonamide], for which the half-maximal inhibitory concentration (IC50) in data set [4] was found to be 457 nM.

Take `COc1nc(OCC(F)F)c(F)nc1NS(=O)(=O)c1c[nH]c(-c2ccccc2)c1` [RE-A]: the results for the microsomal CLint at 1 µM in data set [1], in data set [2] and in data set [3] were 136 µL/min/mg, 21 µL/min/mg and 489 µL/min/mg, respectively.

On to `COc1nc(NS(=O)(=O)c2c[nH]c(C3CCC3)c2)nc(OC)c1OC(F)F` [Example 50, 5-cyclobutyl-N-[5-(difluoromethoxy)-4,6-dimethoxy-pyrimidin-2-yl]-1H-pyrrole-3-sulfonamide], for which, in data set [4], the IC50 came out at 748 nM.

In turn, `COc1nc(NS(=O)(=O)c2c[nH]c(-c3cscn3)c2)nc(OC)c1OCCF` [Example 25, N-[5-(2-fluoroethoxy)-4,6-dimethoxy-pyrimidin-2-yl]-5-thiazol-4-yl-1H-pyrrole-3-sulfonamide] displayed an IC50 in data set [4] of 916 nM.

On to `COc1nc(NS(=O)(=O)c2c[nH]c(-c3ncccn3)c2)nc(OC)c1OCC(F)F` [Example 43, N-[5-(2,2-difluoroethoxy)-4,6-dimethoxy-pyrimidin-2-yl]-5-pyrimidin-2-yl-1H-pyrrole-3-sulfonamide], for which, in data set [4], the IC50 is 1250 nM.

The compound `COc1nc(NS(=O)(=O)c2c[nH]c(-c3ncccc3C)c2)nc(OC)c1OCC(F)F` [Example 49, N-[5-(2,2-difluoroethoxy)-4,6-dimethoxy-pyrimidin-2-yl]-5-(3-methyl-2-pyridyl)-1H-pyrrole-3-sulfonamide] gave an IC50 in data set [4] of 122 nM.

With `O=S(=O)(Nc1cc(F)c(OC(F)F)cc1F)c1c[nH]c(-c2nccs2)c1` [RE-D], the microsomal CLint at 1 µM stood at 35 µL/min/mg in data set [1], 10 µL/min/mg in data set [2] and 207 µL/min/mg in data set [3].

On to `COc1nc(NS(=O)(=O)c2c[nH]c(-c3nc(C)cs3)c2)nc(OC)c1CC(F)F` [Example 20, N-[5-(2,2-difluoroethyl)-4,6-dimethoxy-pyrimidin-2-yl]-5-(4-methylthiazol-2-yl)-1H-pyrrole-3-sulfonamide], for which half-maximal inhibition in data set [4] (IC50) was put at 198 nM. That is a sub-micromolar value.

In turn, `COc1nc(NS(=O)(=O)c2c[nH]c(-c3nccs3)c2)nc(OC)c1CCC#N` [Example 10, N-[5-(2-cyanoethyl)-4,6-dimethoxy-pyrimidin-2-yl]-5-thiazol-2-yl-1H-pyrrole-3-sulfonamide] yielded an IC50 in data set [4] of 69 nM.
